pIC50: −log10 of the molar value.
biological target: T1, Human Factor D (Homo sapiens, UniProt P00746); experiment: Human Factor D Assay; format: biochemical; conditions: Human Factor D 80 nM, substrate Z-L-Lys-SBzl, assay of Example 3; read-out: IC50 (Stars)
T1 construct: purified from human serum; purchased Complement Technology, Inc; host or cells: human serum (natural protein, not recombinant)
Outline: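 Serum-purified human factor D (80 nM final) preincubated 5 min at room temperature with test compound in 50 mM Tris, 1M NaCl, pH 7.5. Z-L-Lys-SBzl substrate and DTNB then added, each at 100 μM final. IC50 from nonlinear regression of reaction rate against compound concentration.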

T1 sequence (P00746 26-253): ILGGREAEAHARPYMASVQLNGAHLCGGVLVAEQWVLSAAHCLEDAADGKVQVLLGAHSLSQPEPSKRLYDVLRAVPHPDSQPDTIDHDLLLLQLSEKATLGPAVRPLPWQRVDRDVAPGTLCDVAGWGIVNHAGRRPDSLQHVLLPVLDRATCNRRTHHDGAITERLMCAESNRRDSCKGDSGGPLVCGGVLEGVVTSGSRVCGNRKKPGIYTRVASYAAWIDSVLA

`CC(=O)c1nn(CC(=O)N2[C@H](C(=O)NCCc3ccc(F)cc3)C[C@@]3(C)C[C@@H]23)c2c(C)cc(-c3cnc(C)nc3)cc12` [Compound 2, (1R,3S,5R)-2-(2-(3-Acetyl-7-methyl-5-(2-methylpyrimidin-5-yl)-1H-indazol-1-yl)acetyl)-N-(4-fluorophenethyl)-5-methyl-2-azabicyclo[3.1.0]hexane-3-carboxamide] and `CC(=O)c1nn(CC(=O)N2[C@H](C(=O)N[C@H](C)C(C)C)C[C@@]3(C)C[C@@H]23)c2ccc(-c3cnc(C)nc3)cc12` [Compound 14, (1R,3S,5R)-2-(2-(3-Acetyl-5-(2-methylpyrimidin-5-yl)-1H-indazol-1-yl)acetyl)-5-methyl-N—((R)-3-methylbutan-2-yl)-2-azabicyclo[3.1.0]hexane-3-carboxamide] cannot be ordered by pIC50: > 6.00 for the first, > 6.00 for the second.

same assay, conditions: Human Factor D 80 nM, substrate Z-L-Lys-SBzl; Table 2; read-out: IC50 (Stars)

`CC(=O)c1nn(CC(=O)N2[C@H](C(=O)Nc3cncc(Br)n3)C[C@@]3(C)C[C@@H]23)c2c(C)cc(-c3cnc(C(=O)O)nc3)cc12` [Compound 43, 5-(3-acetyl-1-(2-((1R,3S,5R)-3-((6-bromopyrazin-2-yl)carbamoyl)-5-methyl-2-azabicyclo[3.1.0]hexan-2-yl)-2-oxoethyl)-7-methyl-1H-indazol-5-yl)pyrimidine-2-carboxylic acid] and `CC(=O)c1cn(CC(=O)N2[C@H](C(=O)Nc3cncc(Br)n3)C[C@@]3(C)C[C@@H]23)c2c(C)cc(-c3cnc(C)nc3)cc12` [Compound 155, (1R,3S,5R)-2-(2-(3-acetyl-7-methyl-5-(2-methylpyrimidin-5-yl)-1H-indol-1-yl)acetyl)-N-(6-bromopyrazin-2-yl)-5-methyl-2-azabicyclo[3.1.0]hexane-3-carboxamide] cannot be ordered by pIC50: > 6.00 for the first, > 6.00 for the second.

`CC(=O)c1cn(CC(=O)N2[C@H](C(=O)Nc3nc(Br)c(F)cc3C)C[C@@]3(C)C[C@@H]23)c2ccc(-c3cnc4cc(C)nn4c3)cc12` [Compound 211, (1R,3S,5R)-2-(2-(3-acetyl-5-(2-methylpyrazolo[1,5-a]pyrimidin-6-yl)-1H-indol-1-yl)acetyl)-N-(6-bromo-5-fluoro-3-methylpyridin-2-yl)-5-methyl-2-azabicyclo[3.1.0]hexane-3-carboxamide] and `CC(=O)c1nn(CC(=O)N2[C@H](C(=O)Nc3nc(C(F)(F)F)ccc3C)C[C@@]3(C)C[C@@H]23)c2c(C)cc(-c3cnc4cc(C)nn4c3)cc12` [Compound 224, (1R,3S,5R)-2-(2-(3-acetyl-7-methyl-5-(2-methylpyrazolo[1,5-a]pyrimidin-6-yl)-1H-indazol-1-yl)acetyl)-5-methyl-N-(3-methyl-6-(trifluoromethyl)pyridin-2-yl)-2-azabicyclo[3.1.0]hexane-3-carboxamide] cannot be ordered by pIC50: > 6.00 for the first, > 6.00 for the second.

`COC(=O)C1(c2cncc(-c3ccc4c(c3)c(C(C)=O)nn4CC(=O)N3[C@H](C(=O)Nc4nc(Br)ccc4C)C[C@@]4(C)C[C@@H]34)c2)CC1` [Compound 97, Methyl 1-(5-(3-acetyl-1-(2-((1R,3S,5R)-3-((6-bromo-3-methylpyridin-2-yl)carbamoyl)-5-methyl-2-azabicyclo[3.1.0]hexan-2-yl)-2-oxoethyl)-1H-indazol-5-yl)pyridin-3-yl)cyclopropane-1-carboxylate] and `CC(=O)c1nn(CC(=O)N2[C@H](C(=O)Nc3nc(Br)ccc3C)C[C@@]3(C)C[C@@H]23)c2c(C)cc(-c3cnc(C4(O)CC4)nc3)cc12` [Compound 169] cannot be ordered by pIC50: > 6.00 for the first, > 6.00 for the second.

`CC(=O)c1nn(CC(=O)N2[C@H](C(=O)NC(C)Cc3cnccn3)C[C@@]3(C)C[C@@H]23)c2c(C)cc(-c3cnc(C)nc3)cc12` (stereo partly drawn) [Compound 188, (1R,3S,5R)-2-{2-[3-acetyl-7-methyl-5-(2-methylpyrimidin-5-yl)indazol-1-yl]acetyl}-5-methyl-N-[1-(pyrazin-2-yl)propan-2-yl]-2-azabicyclo[3.1.0]hexane-3-carboxamide] and `CC(=O)c1nn(CC(=O)N2[C@H](C(=O)NCCc3cc[nH]n3)C[C@@]3(C)C[C@@H]23)c2c(C)cc(-c3cnc(C)nc3)cc12` [Compound 106, (1R,3S,5R)-2-{2-[3-acetyl-7-methyl-5-(2-methylpyrimidin-5-yl)indazol-1-yl]acetyl}-5-methyl-N-[2-(1H-pyrazol-3-yl)ethyl]-2-azabicyclo[3.1.0]hexane-3-carboxamide] cannot be ordered by pIC50: > 6.00 for the first, > 6.00 for the second.

`COCc1ccc(Br)nc1NC(=O)[C@@H]1C[C@@]2(C)C[C@H]2N1C(=O)Cn1cc(C(C)=O)c2cc(-c3cnc(C)nc3)cc(C)c21` [Compound 214, (1R,3S,5R)-2-(2-(3-acetyl-7-methyl-5-(2-methyl-pyrimidin-5-yl)-1H-indol-1-yl)acetyl)-N-(6-bromo-3-(methoxymethyl)pyridin-2-yl)-5-methyl-2-azabicyclo[3.1.0]hexane-3-carboxamide] and `CC(=O)c1cn(CC(=O)N2[C@H](C(=O)Nc3nc(Br)ccc3C)C[C@@]3(C)C[C@@H]23)c2c(C)cc(-c3cnc(C(C)F)nc3)cc12` (stereo partly drawn) [Compound 216, (1R,3S,5R)-2-(2-(3-acetyl-5-(2-(1-fluoroethyl)pyrimidin-5-yl)-7-methyl-1H-indol-1-yl)acetyl)-N-(6-bromo-3-methylpyridin-2-yl)-5-methyl-2-azabicyclo[3.1.0]hexane-3-carboxamide] cannot be ordered by pIC50: > 6.00 for the first, > 6.00 for the second.

`CC(=O)c1nn(CC(=O)N2[C@H](C(=O)N[C@@H]3CCCCC3(F)F)C[C@@]3(C)C[C@@H]23)c2c(C)cc(-c3cnc(C)nc3)cc12` [Compound 148, (1R,3S,5R)-2-{2-[3-acetyl-7-methyl-5-(2-methylpyrimidin-5-yl)indazol-1-yl]acetyl}-N-[(1R)-2,2-difluorocyclohexyl]-5-methyl-2-azabicyclo[3.1.0]hexane-3-carboxamide] and `CC(=O)c1nn(CC(=O)N2[C@H](C(=O)N[C@@H]3CCCCC34OCCO4)C[C@@]3(C)C[C@@H]23)c2c(C)cc(-c3cnc(C)nc3)cc12` (single isomer, unassigned) [Compound 136] cannot be ordered by pIC50: > 6.00 for the first, > 6.00 for the second.

`CC(=O)c1cn(CC(=O)N2[C@H](C(=O)Nc3nc(Br)ccc3Cl)C[C@@]3(C)C[C@@H]23)c2c(C)cc(-c3cnc(CO)nc3)cc12` [Compound 84, (1R,3S,5R)-2-(2-(3-acetyl-5-(2-(hydroxymethyl)pyrimidin-5-yl)-7-methyl-1H-indol-1-yl)acetyl)-N-(6-bromo-3-chloropyridin-2-yl)-5-methyl-2-azabicyclo[3.1.0]hexane-3-carboxamide] and `CC(=O)c1nn(CC(=O)N2[C@H](C(=O)Nc3nc(Br)ccc3C3CC3)C[C@@]3(C)C[C@@H]23)c2ccc(-c3cnc(CO)nc3)cc12` [Compound 81, (1R,3S,5R)-2-(2-(3-acetyl-5-(2-(hydroxymethyl)pyrimidin-5-yl)-1H-indazol-1-yl)acetyl)-N-(6-bromo-3-cyclopropylpyridin-2-yl)-5-methyl-2-azabicyclo[3.1.0]hexane-3-carboxamide] cannot be ordered by pIC50: > 6.00 for the first, > 6.00 for the second.

`CC(=O)c1nn(CC(=O)N2[C@H](C(=O)NCCC3(C)OCCO3)C[C@@]3(C)C[C@@H]23)c2c(C)cc(-c3cnc(C)nc3)cc12` [Compound 145, (1R,3S,5R)-2-{2-[3-acetyl-7-methyl-5-(2-methylpyrimidin-5-yl)indazol-1-yl]acetyl}-5-methyl-N-[2-(2-methyl-1,3-dioxolan-2-yl)ethyl]-2-azabicyclo[3.1.0]hexane-3-carboxamide] and `CCC(Cc1ccccc1)NC(=O)[C@@H]1C[C@@]2(C)C[C@H]2N1C(=O)Cn1nc(C(C)=O)c2cc(-c3cnc(C)nc3)cc(C)c21` (stereo partly drawn) [Compound 173, (1R,3S,5R)-2-{2-[3-acetyl-7-methyl-5-(2-methylpyrimidin-5-yl)indazol-1-yl]acetyl}-5-methyl-N-(1-phenylbutan-2-yl)-2-azabicyclo[3.1.0]hexane-3-carboxamide] cannot be ordered by pIC50: > 6.00 for the first, > 6.00 for the second.

`CC(=O)c1nn(CC(=O)N2C[C@H]3C[C@H]3[C@H]2C(=O)Nc2nc(Br)c(F)cc2C)c2c(C)cc(-c3cnc(CO)nc3)cc12` [Compound 76, (1R,2S,5S)-3-(2-(3-acetyl-5-(2-(hydroxymethyl)pyrimidin-5-yl)-7-methyl-11H-indazol-1-yl)acetyl)-N-(6-bromo-5-fluoro-3-methylpyridin-2-yl)-3-azabicyclo[3.1.0]hexane-2-carboxamide] and `CC(=O)c1nn(CC(=O)N2C[C@H]3C[C@H]3[C@H]2C(=O)Nc2nc(Br)ccc2C)c2c(C)cc(-c3cnc(C(C)O)nc3)cc12` (stereo partly drawn) [Compound 164, (1R,2S,5S)-3-(2-(3-acetyl-5-(2-(1-hydroxyethyl)pyrimidin-5-yl)-7-methyl-1H-indazol-1-yl)acetyl)-N-(6-bromo-3-methylpyridin-2-yl)-3-azabicyclo[3.1.0]hexane-2-carboxamide] cannot be ordered by pIC50: > 6.00 for the first, > 6.00 for the second.

`Cc1cc(F)c(Br)nc1NC(=O)[C@@H]1C[C@@]2(C)C[C@H]2N1C(=O)Cn1nc(C(N)=O)c2cc(-c3cnc(CO)nc3)nc(C)c21` [Compound 167, (1R,3S,5R)—N-(6-bromo-5-fluoro-3-methylpyridin-2-yl)-2-(2-{3-carbamoyl-5-[2-(hydroxymethyl)pyrimidin-5-yl]-7-methylpyrazolo[3,4-c]pyridin-1-yl}acetyl)-5-methyl-2-azabicyclo[3.1.0]hexane-3-carboxamide] and `CC(=O)c1nn(CC(=O)N2[C@H]3CC[C@H](C3)[C@H]2C(=O)Nc2nc(Br)ccc2C)c2c(C)cc(-c3cnc(C)nc3)cc12` [Compound 99, (1S,3S,4R)-2-(2-(3-Acetyl-7-methyl-5-(2-methylpyrimidin-5-yl)-1H-indazol-1-yl)acetyl)-N-(6-bromo-3-methylpyridin-2-yl)-2-azabicyclo[2.2.1]heptane-3-carboxamide] cannot be ordered by pIC50: > 6.00 for the first, > 6.00 for the second.

`CC(=O)c1nn(CCN2C[C@H](F)C[C@H]2C(=O)Nc2cccc(Br)n2)c2ccc(-c3cnc(C)nc3)cc12` [Compound 139, (2S,4R)-1-(2-(3-acetyl-5-(2-methylpyrimidin-5-yl)-1H-indazol-1-yl)ethyl)-N-(6-bromopyridin-2-yl)-4-fluoropyrrolidine-2-carboxamide] was tested, and the pIC50 was < 5.00.

Reference: patent publication US20230022157A1 (Achillion Pharmaceuticals, Inc., priority 2018, published 2023)
